Measurements: PubChem BioAssay (NCI)
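48-hour exposure; five concentrations; linearly interpolated endpoints. GI50 = concentration required for 50% inhibition of growth. At the TGI there is no net growth.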

Key:
Assay in all cases: DTP human tumour cell line panel, 48 h
LOX IMVI melanoma = system: LOX IMVI melanoma
OVCAR-8 ovarian = system: OVCAR-8 ovarian
ACHN renal = system: ACHN renal
TK-10 renal = system: TK-10 renal
HOP-62 NSCLC = system: HOP-62 NSCLC
OVCAR-4 ovarian = system: OVCAR-4 ovarian
T-47D breast = system: T-47D breast
A498 renal = system: A498 renal
786-0 renal = system: 786-0 renal
NCI-H460 lung = system: NCI-H460 lung
K-562 leukemia = system: K-562 leukemia
HCC-2998 colon = system: HCC-2998 colon
HS 578T breast = system: HS 578T breast
M14 melanoma = system: M14 melanoma
KM12 colon = system: KM12 colon
UO-31 renal = system: UO-31 renal
NCI-H522 lung = system: NCI-H522 lung
NCI-H226 lung = system: NCI-H226 lung
SN12C renal = system: SN12C renal
SF-295 CNS = system: SF-295 CNS
MCF7 breast = system: MCF7 breast
HCT-116 colon = system: HCT-116 colon
SK-MEL-5 melanoma = system: SK-MEL-5 melanoma
OVCAR-5 ovarian = system: OVCAR-5 ovarian
MOLT-4 leukemia = system: MOLT-4 leukemia
UACC-62 melanoma = system: UACC-62 melanoma
NCI-H23 lung = system: NCI-H23 lung
IGROV1 ovarian = system: IGROV1 ovarian
SK-MEL-28 melanoma = system: SK-MEL-28 melanoma
NCI/ADR-RES ovarian = system: NCI/ADR-RES ovarian
SF-268 CNS = system: SF-268 CNS
PC-3 prostate = system: PC-3 prostate
A549 NSCLC = system: A549 NSCLC
DU-145 prostate = system: DU-145 prostate
OVCAR-3 ovarian = system: OVCAR-3 ovarian
SK-OV-3 ovarian = system: SK-OV-3 ovarian
CCRF-CEM leukemia = system: CCRF-CEM leukemia
RPMI-8226 leukemia = system: RPMI-8226 leukemia
MDA-MB-435 = system: MDA-MB-435
SNB-19 CNS = system: SNB-19 CNS
RXF 393 renal = system: RXF 393 renal
CAKI-1 renal = system: CAKI-1 renal
HCT-15 colon = system: HCT-15 colon
SK-MEL-2 melanoma = system: SK-MEL-2 melanoma
U251 CNS = system: U251 CNS
COLO 205 colon = system: COLO 205 colon
HOP-92 NSCLC = system: HOP-92 NSCLC

Compound: Cc1c(Cl)cccc1NC1=C(Cl)C(=O)N(Cc2ccccc2)C1=O
- GI50 (LOX IMVI melanoma): 4.83 µM
- TGI (LOX IMVI melanoma): 47.8 µM
- GI50 (OVCAR-8 ovarian): 9.23 µM
- TGI (OVCAR-8 ovarian): 23.8 µM
- GI50 (ACHN renal): 1.29 µM
- TGI (ACHN renal): 8.92 µM
- GI50 (TK-10 renal): 2.87 µM
- TGI (TK-10 renal): 15.3 µM
- GI50 (HOP-62 NSCLC): 7.65 µM
- TGI (HOP-62 NSCLC): 20.4 µM
- GI50 (OVCAR-4 ovarian): 15.5 µM
- TGI (OVCAR-4 ovarian): 34 µM
- GI50 (T-47D breast): 25.4 µM
- TGI (T-47D breast): > 100 µM
- GI50 (A498 renal): 11.7 µM
- TGI (A498 renal): 24.8 µM
- GI50 (786-0 renal): 1.9 µM
- TGI (786-0 renal): 11 µM
- GI50 (NCI-H460 lung): 11 µM
- TGI (NCI-H460 lung): 30.2 µM
- GI50 (K-562 leukemia): 4.25 µM
- TGI (K-562 leukemia): 16.9 µM
- GI50 (HCC-2998 colon): 3.12 µM
- TGI (HCC-2998 colon): 13.6 µM
- GI50 (HS 578T breast): 10.9 µM
- TGI (HS 578T breast): 24.8 µM
- GI50 (M14 melanoma): 10.2 µM
- TGI (M14 melanoma): 22 µM
- GI50 (KM12 colon): 2.17 µM
- TGI (KM12 colon): 14 µM
- GI50 (UO-31 renal): 6.96 µM
- TGI (UO-31 renal): 24.4 µM
- GI50 (NCI-H522 lung): 17 µM
- TGI (NCI-H522 lung): > 100 µM
- GI50 (NCI-H226 lung): 12.1 µM
- TGI (NCI-H226 lung): 38.4 µM
- GI50 (SN12C renal): 11.4 µM
- TGI (SN12C renal): 24.1 µM
- GI50 (SF-295 CNS): 3.01 µM
- TGI (SF-295 CNS): 14.4 µM
- GI50 (MCF7 breast): 25.3 µM
- TGI (MCF7 breast): 59 µM
- GI50 (HCT-116 colon): 10.4 µM
- TGI (HCT-116 colon): 22.1 µM
- GI50 (SK-MEL-5 melanoma): 11.7 µM
- TGI (SK-MEL-5 melanoma): 23.9 µM
- GI50 (OVCAR-5 ovarian): 17.6 µM
- TGI (OVCAR-5 ovarian): 31.5 µM
- GI50 (MOLT-4 leukemia): 10.1 µM
- TGI (MOLT-4 leukemia): 43 µM
- GI50 (UACC-62 melanoma): 6.15 µM
- TGI (UACC-62 melanoma): 19.7 µM
- GI50 (NCI-H23 lung): 10.8 µM
- TGI (NCI-H23 lung): 22.7 µM
- GI50 (IGROV1 ovarian): 19.7 µM
- TGI (IGROV1 ovarian): 56.5 µM
- GI50 (SK-MEL-28 melanoma): 15.1 µM
- TGI (SK-MEL-28 melanoma): 30.7 µM
- GI50 (NCI/ADR-RES ovarian): 5 µM
- TGI (NCI/ADR-RES ovarian): 20.9 µM
- GI50 (SF-268 CNS): 6.88 µM
- TGI (SF-268 CNS): 27 µM
- GI50 (PC-3 prostate): 4.85 µM
- TGI (PC-3 prostate): 19 µM
- GI50 (A549 NSCLC): 12 µM
- TGI (A549 NSCLC): 29.6 µM
- GI50 (DU-145 prostate): 3.67 µM
- TGI (DU-145 prostate): 17.1 µM
- GI50 (OVCAR-3 ovarian): 1.47 µM
- TGI (OVCAR-3 ovarian): 15.2 µM
- GI50 (SK-OV-3 ovarian): 14.7 µM
- TGI (SK-OV-3 ovarian): 30.2 µM
- GI50 (CCRF-CEM leukemia): 0.392 µM
- TGI (CCRF-CEM leukemia): 12.5 µM
- GI50 (RPMI-8226 leukemia): 1.25 µM
- TGI (RPMI-8226 leukemia): 26.7 µM
- GI50 (MDA-MB-435): 8.55 µM
- TGI (MDA-MB-435): 20.8 µM
- GI50 (SNB-19 CNS): 22.1 µM
- TGI (SNB-19 CNS): 61.5 µM
- GI50 (RXF 393 renal): 12 µM
- TGI (RXF 393 renal): 32.7 µM
- GI50 (CAKI-1 renal): 1.11 µM
- TGI (CAKI-1 renal): 5.06 µM
- GI50 (HCT-15 colon): 4.37 µM
- TGI (HCT-15 colon): 18 µM
- GI50 (SK-MEL-2 melanoma): 27.5 µM
- TGI (SK-MEL-2 melanoma): 89.9 µM
- GI50 (U251 CNS): 6.24 µM
- TGI (U251 CNS): 20.1 µM
- GI50 (COLO 205 colon): 22.1 µM
- TGI (COLO 205 colon): 57.2 µM
- GI50 (HOP-92 NSCLC): 1.56 µM
- TGI (HOP-92 NSCLC): 14.9 µM
